Laboratory results from ChEMBL document CHEMBL5390272, “Discovery of a potent and selective human AC2 inhibitor based on 7-deazapurine analogues of adefovir” (Bioorg Med Chem, 2023).
pIC50: −log10 of the molar value.

What was measured:
[1] = system: HepG2; experiment: Cytotoxicity against human HepG2 cells by CellTiter-Glo 2.0 assay; format: functional, cell-based
[2] = Inhibition of Bordetella pertussis Adenylate cyclase toxin in mouse J774.A1 cells preincubated for 5 hrs followed by ACT addition and measured after 30 mins by CatchPointcAMP immunoassay method; format: cell-based
[3] = Cytotoxicity against mouse J774.A1 cells assessed as cell viability at 10 uM incubated for 5 hrs by Cell Titer-Glo Luminescent Cell Viability assay relative to control; format: toxicity, cell-based; conditions: read-out: Activity
[4] = system: NHDF; experiment: Cytotoxicity against human NHDF cells by CellTiter-Glo 2.0 assay; format: toxicity, cell-based
[5] = system: HL-60; experiment: Cytotoxicity against human HL-60 cells by CellTiter-Glo 2.0 assay; format: functional, cell-based
[6] = system: HeLa S3; experiment: Cytotoxicity against human HeLa S3 cells by CellTiter-Glo 2.0 assay; format: functional, cell-based
[7] = system: CCRF-CEM; experiment: Cytotoxicity against human CCRF-CEM cells by CellTiter-Glo 2.0 assay; format: functional, cell-based
[8] = system: HEK293; experiment: Cytotoxicity against AC1 expressed HEK293 cells by CellTiter-Glo 2.0 assay relative to control; format: toxicity, cell-based; parameters: concentration or dose not given beside the values; conditions: human
[9] = target: T1, Calmodulin-sensitive adenylate cyclase (Bacillus anthracis, UniProt P40136); experiment: Inhibition of Bacillus anthracis Edema factor
T1 sequence (P40136 whole entry): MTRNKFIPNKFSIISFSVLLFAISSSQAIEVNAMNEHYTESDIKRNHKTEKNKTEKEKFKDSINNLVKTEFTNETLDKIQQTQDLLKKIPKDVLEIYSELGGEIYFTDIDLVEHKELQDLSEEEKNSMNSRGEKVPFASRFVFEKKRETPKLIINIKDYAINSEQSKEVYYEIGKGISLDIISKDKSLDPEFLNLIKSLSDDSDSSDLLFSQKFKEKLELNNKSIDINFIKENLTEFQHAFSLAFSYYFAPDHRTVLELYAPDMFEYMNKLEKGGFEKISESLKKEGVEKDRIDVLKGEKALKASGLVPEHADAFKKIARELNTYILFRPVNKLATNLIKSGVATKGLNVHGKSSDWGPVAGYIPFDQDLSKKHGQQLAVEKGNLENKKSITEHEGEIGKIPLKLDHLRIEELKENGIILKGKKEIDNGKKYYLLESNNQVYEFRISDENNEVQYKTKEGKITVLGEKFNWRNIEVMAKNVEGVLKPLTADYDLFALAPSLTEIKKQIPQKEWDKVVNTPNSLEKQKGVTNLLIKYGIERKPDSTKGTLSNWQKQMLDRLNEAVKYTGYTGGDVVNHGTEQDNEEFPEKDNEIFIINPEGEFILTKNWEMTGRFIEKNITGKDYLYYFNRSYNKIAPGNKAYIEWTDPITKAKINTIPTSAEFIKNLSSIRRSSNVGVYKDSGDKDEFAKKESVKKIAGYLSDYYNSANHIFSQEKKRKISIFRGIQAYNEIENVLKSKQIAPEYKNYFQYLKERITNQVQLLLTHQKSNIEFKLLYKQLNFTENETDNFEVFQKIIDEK

C=C(C)c1cn(CCOCP(=O)(N[C@@H](Cc2ccccc2)C(=O)OC(C)C)N[C@@H](Cc2ccccc2)C(=O)OC(C)C)c2ncnc(N)c12
pIC50 [1]: 5.06 | pIC50 [2]: < 5.00 | viability at 5 h, 10 µM [3]: 81% | pIC50 [4]: < 5.00 | pIC50 [5]: 5.34 | pIC50 [6]: < 5.00 | pIC50 [7]: 5.25 | Activity [8]: 31%

CC(C)OC(=O)[C@H](Cc1ccccc1)NP(=O)(COCCn1cc(C(C)C)c2c(N)ncnc21)N[C@@H](Cc1ccccc1)C(=O)OC(C)C
pIC50 [1]: < 5.00 | pIC50 [2]: < 5.00 | viability at 5 h, 10 µM [3]: 121% | pIC50 [4]: < 5.00 | pIC50 [5]: 5.13 | pIC50 [6]: < 5.00 | pIC50 [7]: 5.18 | Activity [8]: 51%

CC(C)OC(=O)[C@H](Cc1ccccc1)NP(=O)(COCCn1cc(-c2cccc(C(N)=O)c2)c2c(N)ncnc21)N[C@@H](Cc1ccccc1)C(=O)OC(C)C
pIC50 [1]: < 5.00 | pIC50 [2]: 5.60 | viability at 5 h, 10 µM [3]: 85% | pIC50 [4]: < 5.00 | pIC50 [5]: 5.24 | pIC50 [6]: < 5.00 | pIC50 [7]: < 5.00 | Activity [8]: 94%

CC(C)OC(=O)[C@H](Cc1ccccc1)NP(=O)(COCCn1cc(-c2cccc(C#N)c2)c2c(N)ncnc21)N[C@@H](Cc1ccccc1)C(=O)OC(C)C
pIC50 [1]: 5.03 | pIC50 [2]: 5.85 | viability at 5 h, 10 µM [3]: 111% | pIC50 [4]: < 5.00 | pIC50 [5]: 5.49 | pIC50 [6]: 5.00 | pIC50 [7]: 5.41 | Activity [8]: 29%

CC(C)OC(=O)[C@H](Cc1ccccc1)NP(=O)(COCCn1cc(-c2ccccc2)c2c(N)ncnc21)N[C@@H](Cc1ccccc1)C(=O)OC(C)C
pIC50 [1]: 5.18 | pIC50 [2]: 4.88 | viability at 5 h, 10 µM [3]: 82% | pIC50 [4]: < 5.00 | pIC50 [5]: 5.33 | pIC50 [6]: 5.28 | pIC50 [7]: 5.32 | Activity [8]: -18%

CC(C)OC(=O)[C@H](Cc1ccccc1)NP(=O)(COCCn1cc(-c2ccc([N+](=O)[O-])cc2)c2c(N)ncnc21)N[C@@H](Cc1ccccc1)C(=O)OC(C)C
pIC50 [1]: < 5.00 | pIC50 [2]: 5.90 | viability at 5 h, 10 µM [3]: 113% | pIC50 [4]: < 5.00 | pIC50 [5]: 5.34 | pIC50 [6]: 5.53 | pIC50 [7]: 5.39 | Activity [8]: 97%

Cc1cn(CCOCP(=O)(O)OP(=O)(O)OP(=O)(O)O)c2ncnc(N)c12
pIC50 [2]: 7.21 | pIC50 [9]: 6.97

CCOC(=O)[C@H](C)NP(=O)(COCCn1cc(-c2ccc(OC)cc2)c2c(N)ncnc21)Oc1ccccc1 (stereo partly specified)
pIC50 [1]: < 5.00 | pIC50 [2]: 5.27 | viability at 5 h, 10 µM [3]: 104% | pIC50 [4]: < 5.00 | pIC50 [5]: < 5.00 | pIC50 [6]: < 5.00 | pIC50 [7]: < 5.00

CC(C)OC(=O)[C@H](Cc1ccccc1)NP(=O)(COCCn1cc(-c2ccccn2)c2c(N)ncnc21)N[C@@H](Cc1ccccc1)C(=O)OC(C)C
pIC50 [1]: < 5.00 | pIC50 [2]: 5.97 | viability at 5 h, 10 µM [3]: 104% | pIC50 [4]: < 5.00 | pIC50 [5]: 5.29 | pIC50 [6]: 5.10 | pIC50 [7]: 5.24 | Activity [8]: -17%

CC(C)OC(=O)[C@H](Cc1ccccc1)NP(=O)(COCCn1cc(-c2cccc(-c3nn[nH]n3)c2)c2c(N)ncnc21)N[C@@H](Cc1ccccc1)C(=O)OC(C)C
pIC50 [1]: < 5.00 | pIC50 [2]: < 5.00 | viability at 5 h, 10 µM [3]: 94% | pIC50 [4]: < 5.00 | pIC50 [5]: < 5.00 | pIC50 [6]: < 5.00 | pIC50 [7]: < 5.00 | Activity [8]: 110%

COc1ccc(-c2cn(CCOCP(=O)(N[C@@H](Cc3ccccc3)C(=O)OC(C)C)N[C@@H](Cc3ccccc3)C(=O)OC(C)C)c3ncnc(N)c23)cc1
pIC50 [1]: < 5.00 | pIC50 [2]: 5.83 | viability at 5 h, 10 µM [3]: 112% | pIC50 [4]: < 5.00 | pIC50 [5]: 5.19 | pIC50 [7]: 5.24 | Activity [8]: -17%

Cc1cn(CCOCP(=O)(N[C@@H](Cc2ccccc2)C(=O)OC(C)C)N[C@@H](Cc2ccccc2)C(=O)OC(C)C)c2ncnc(N)c12
pIC50 [1]: 5.01 | pIC50 [2]: 5.83 | viability at 5 h, 10 µM [3]: 112% | pIC50 [4]: < 5.00 | pIC50 [5]: 5.13 | pIC50 [6]: < 5.00 | pIC50 [7]: < 5.00 | Activity [8]: 93%

CC(C)OC(=O)[C@H](Cc1ccccc1)NP(=O)(COCCn1cc(C#Cc2ccccc2)c2c(N)ncnc21)N[C@@H](Cc1ccccc1)C(=O)OC(C)C
pIC50 [1]: 5.14 | pIC50 [2]: < 5.00 | viability at 5 h, 10 µM [3]: 116% | pIC50 [4]: < 5.00 | pIC50 [5]: 5.32 | pIC50 [6]: 5.28 | pIC50 [7]: 5.35 | Activity [8]: -9%
